Patent publication US8153787B2 (priority 2005, dated 2012)
Values after ≈ are worked out from the molar mass of the structure shown. Where two headings read alike, the source gives them in different places.

Key:
Vaccinia virus = assay type: cell-based
Cowpox virus (Brighton) [1] = assay type: cell-based
[2] = Decomposition in aqueous solution (sym-triazine ring opening); assay type: physicochemical; details: in words
Source text: The first step is a reversible opening of the sym-triazine ring to the N-formylguanidine derivative which can close back to the cyclic structure. This step occurs in presence of a trialkylammonium buffer, e.g. triethylammonium hydrogenocarbonate (TEAB), triethylammonium hydroxide or triethylammonium acetate. This hydrolytic reaction is slow and reaches equilibrium within several days. It is accompanied by loss of UV-absorption which allows to determine its course.
Though this reaction is generally controlled by acidobasic catalysis, it could be eventually speeded up (or slowed down) in vivo by the action of enzymes.
The reaction course was monitored by measurement of absorption maximum decrease in UV spectrum at λmax 245 nm. For each measurement 10 μl sample of reaction mixture was diluted with water to overall volume 3 ml and absorbance value at 245 nm determined. Equilibrium was reached when no more decrease of absorbance occurred. The reaction mixture was evaporated to dryness, coevaporated with water (5×3 ml) and then with methanol (2×3 ml). The residue in water (3 ml) was applied onto a column of Dowex 50 (Na^+ form, 20 ml) and the column eluted with water. UV absorbing eluate was evaporated and lyophilized to give 105 mg (92%) of a sodium salt of 3a as a colourless amorphous material.

Cowpox virus (Brighton) [3] = system: Cowpox virus (Brighton); set-up: species or system mice; details: mouse, in vivo, sc
HSB-2 cells = details: human
HSV-1 (Kos strain) = assay: microbe, parasite or virus in culture; assay type: cell-based, Herpes simplex virus type 1; details: Human alphaherpesvirus 1, HEL
[4] = mouse, in vivo
Orf virus (NZ2) [5] = assay type: cell-based
[6] = system: Herpes simplex virus-2 (G); assay type: cell-based
SiHa cells (HPV-16) = assay: Human cervical carcinoma (SiHa) xenografts in athymic nude mice; assay type: in vivo; details: 5 weeks intratumoral treatment
Protocol: (§1) Adult animals were injected subcutaneously with 5×10^6 SiHa cells, a human cervical carcinoma cell line which harbors integrated human papillomavirus (HPV-16). Once the tumors were established (approximately after 1 week), the mice were divided in several groups, the tumor size for each mouse was determined, and treatment with placebo (PBS) or the test compounds was started. The test solutions were administered intratumorally at a volume of 50 μl. Mice were treated once a day, 5 times a week for a period of 5 weeks. Every week, the tumor size for each animal was measured with a caliper in two perpendicular dimensions and tumor size was calculated by multiplying the two measured diameters.
as §1, with “s.c.” for “subcutaneously”, “intratumorally (i.t.)” for “intratumorally”

[7] = system: Vaccinia virus (Western Reserve) and recombinant viruses harboring the A314T, A684V or A314T+A684V mutations; assay type: cell-based
in vitro [8] = details: African green monkey
[9] = system: Varicella-Zoster Virus (VZV); assay: microbe, parasite or virus in culture; assay type: cell-based; details: for EC50: Human alphaherpesvirus 3, HEL
[10] = system: vaccinia virus (Lederle strain); assay: microbe, parasite or virus in culture; assay type: cell-based; details: Orthopoxvirus vaccinia, HEL
HSV-2 (Lyons) = system: HSV-2 (Lyons); set-up: species or system mice; details: mouse, in vivo, sc
Cowpox virus (Brighton) [11] = assay: microbe, parasite or virus in culture; assay type: cell-based
pox tail lesions = assay: Pox tail lesion model; assay type: in vivo
[12] = system: herpes simplex virus type 1 (HSV-1); assay: microbe, parasite or virus in culture; assay type: cell-based; details: Human alphaherpesvirus 1, HEL, read-out: EC50 HSV-1 (Kos strain)
HEL cells = details: human
[13] = system: herpes simplex virus type 2 (HSV-2); assay: microbe, parasite or virus in culture; assay type: cell-based; details: Human alphaherpesvirus 2, HEL, read-out: EC50 HSV-2 (G strain)
[14] = system: Vaccinia virus (Lederle, Lister, W R and Copenhagen); assay type: cell-based
in vitro [15] = details: mouse
[16] = system: primate polyomavirus (SV40); assay: microbe, parasite or virus in culture; assay type: cell-based, simian polyomavirus SV40; details: Polyomavirus sp., BSC-1, in Primates
Orf virus (NZ2) [17] = assay: microbe, parasite or virus in culture; assay type: cell-based
[18] = system: Human Cytomegalovirus (HCMV); assay: microbe, parasite or virus in culture; assay type: cell-based
HSV-1 (KOS) = system: HSV-1 (KOS); set-up: species or system mice; details: mouse, in vivo, sc

In the case of `Nc1ncn(C[C@@H](CO)OCP(=O)(O)O)c(=O)n1` [Compound 3, (S)-1-[3-hydroxy-2-(Phosphonomethoxy)propyl]-5-azacytosine], the “activity against Vaccinia virus in E6SM cell cultures” value (Vaccinia virus) is reported as “significant activity”, the “activity against Cowpox virus (Brighton) in PHKs” value (Cowpox virus (Brighton) [1]) is reported as “significant activity” and the “decomposition in aqueous solution” value [2] is reported as “slow decomposition”. For the same compound, the “survival, Cowpox virus (Brighton) mice model” value (Cowpox virus (Brighton) [3]) was 100%, the “Toxicity MCC (microscopy), HSB-2 cells” value (HSB-2 cells) was 16 µg/mL and the EC50 (HSV-1 (Kos strain); 2 h, read-out: EC50 HSV-1 (Kos strain), Treatment from 2 h till end of experiment) was 0.16 µg/mL (≈ 0.571 µM). The EC50 (HSV-1 (Kos strain); read-out: EC50 HSV-1 (Kos strain), Pretreatment (−16 hours)) was 0.25 µg/mL (≈ 0.892 µM), the EC50 (HSV-1 (Kos strain); read-out: EC50 HSV-1 (Kos strain), Treatment 2-4 hours) was 1 µg/mL (≈ 3.57 µM) and the EC50 (HSV-1 (Kos strain); read-out: EC50 HSV-1 (Kos strain), Treatment 2-6 hours) was 0.37 µg/mL (≈ 1.32 µM). The EC50 (HSV-1 (Kos strain); read-out: EC50 HSV-1 (Kos strain), Treatment 2-8 hours) was 0.32 µg/mL (≈ 1.14 µM), the “mean body weights of the mice” value [4] was “normal pattern” and the “activity against Orf virus (NZ2) in PHKs” value (Orf virus (NZ2) [5]) was “significant activity”. The “activity against Herpes simplex virus-2 (G) in E6SM cell cultures” value [6] was “significant activity”, the “tumor size, SiHa xenografts” value (SiHa cells (HPV-16)) was “did not increase” and the “EC50 Vaccinia virus (Western Reserve) wild-type” value [7] was 1.58 µg/mL (≈ 5.64 µM). For the same compound, the “EC50 recombinant vaccinia virus 314 + 684” value [7] was 10.8 µg/mL, the “EC50 recombinant vaccinia virus 684” value [7] was 6.88 µg/mL and the “EC50 recombinant vaccinia virus A314T” value [7] was 4.1 µg/mL. For the same compound, the CC50 (in vitro [8]) was 129 µg/mL (≈ 460 µM), the “activity against VZV (Oka, YS, YS-R and 07-1) in HEL cells” value [9] was “significant activity” and the EC50 ([9]; read-out: EC50 VZV 07/1 strain (HEL cells)) was 0.019 µg/mL (≈ 0.0678 µM). It also gave an EC50 ([9]; read-out: EC50 VZV OKA strain (HEL cells)) of 0.027 µg/mL (≈ 0.0964 µM), an EC50 ([9]; read-out: EC50 VZV YS strain (HEL cells)) of 0.039 µg/mL (≈ 0.139 µM) and an EC50 ([9]; read-out: EC50 VZV YS-R strain (HEL cells)) of 0.015 µg/mL (≈ 0.0535 µM). For the same compound, the EC50 ([10]; 2 h, read-out: EC50 Vaccinia (Lederle strain), Treatment from 2 h till end of experiment) was 2 µg/mL (≈ 7.14 µM), the EC50 ([10]; read-out: EC50 Vaccinia (Lederle strain), Pretreatment (−16 hours)) was 1.59 µg/mL (≈ 5.67 µM) and the EC50 ([10]; read-out: EC50 Vaccinia (Lederle strain), Treatment 2-4 hours) was 5 µg/mL (≈ 17.8 µM). The EC50 ([10]; read-out: EC50 Vaccinia (Lederle strain), Treatment 2-6 hours) was 3.98 µg/mL (≈ 14.2 µM), the EC50 ([10]; read-out: EC50 Vaccinia (Lederle strain), Treatment 2-8 hours) was 6.3 µg/mL (≈ 22.5 µM) and the “survival rate, HSV-2 (Lyons) model” value (HSV-2 (Lyons)) was 100%. For the same compound, the “activity against Cowpox virus (Brighton) in HEL cells” value (Cowpox virus (Brighton) [11]) was “significant activity”, the EC50 (Cowpox virus (Brighton) [11]; Cowpox virus, HEL, read-out: EC50 Cowpox virus Brighton) was 4.72 µg/mL (≈ 16.8 µM) and the “number of lesions on day 7” value (pox tail lesions) was 0. For the same compound, the EC50 [12] was 0.61 µg/mL (≈ 2.18 µM), the “Toxicity MCC (microscop)” value (HEL cells) was greater than 100 µg/mL and the EC50 [13] was 0.54 µg/mL (≈ 1.93 µM). For the same compound, the “activity against Vaccinia virus (Lederle, Lister, W R and Copenhagen) in PHKs” value [14] was “significant activity”, the CC50 (in vitro [15]) was 109 µg/mL (≈ 391 µM) and the EC50 ([16]; read-out: antiviral activity (EC50) SV40 PML-1 strain EK) was 3.19 µg/mL (≈ 11.4 µM). For the same compound, the EC50 ([16]; read-out: antiviral activity (EC50) SV40 PML-2 strain DAR) was 3.81 µg/mL (≈ 13.6 µM), the EC50 ([16]; read-out: antiviral activity (EC50) SV40 strain A2895) was 3.22 µg/mL (≈ 11.5 µM) and the “activity against Orf virus (NZ2) in HEL cells” value (Orf virus (NZ2) [17]) was “significant activity”. The EC50 (Orf virus (NZ2) [17]; Orf virus, HEL, read-out: EC50 Orf virus NZ2) was 0.15 µg/mL (≈ 0.535 µM), the “activity against CMV (AD-169 and Davis) in HEL cells” value [18] was “significant activity” and the EC50 ([18]; Human betaherpesvirus 5, AD169, HEL, read-out: EC50 HCMV AD-169 strain (HEL cells)) was 0.078 µg/mL (≈ 0.278 µM). The EC50 ([18]; Human betaherpesvirus 5, HEL, read-out: EC50 HCMV Davis strain (HEL cells)) was 0.054 µg/mL (≈ 0.193 µM) and the “survival rate, HSV-1 (KOS) mice” value (HSV-1 (KOS)) was 100%.
